The values that follow come from patent US9057727B2, “Screening methods using G-protein coupled receptors and related compositions” (The General Hospital Corporation, priority 2007, dated 2015).

The structures appear in SMILES notation. Where two headings read alike, the source gives them in different places. Peptide text beside a SMILES is read from it.

One experiment concerns SaOS cells. Description: cAMP production in SaOS cells, dose-response. It is filed as cell-based. (Changes in cAMP serve as a functional read-out for many G protein-coupled receptors.)
For the next experiment, the system named is MC3T3-E1 cells. As to the kind of experiment: cAMP in MC3T3-E1 cells, dose-response. It is filed as cell-based. Here is the method: In the 1-30 scaffold, Gly, Ser, Leu, Asn, Gln, Trp, Glu, and Lys were substituted at position 29; Gly, Ser, Leu, Asn, Asp, Trp, and Lys were substituted at position 30; and Ser, Leu, Asn, Val, Trp, Glu, and Lys were substituted at position 31. […] These peptides were tested for cAMP activity in MC3T3-E1 cells.

Experiment [1] concerns the target T1, human PTHR, G protein-coupled conformation (RG) (Homo sapiens, UniProt Q03431).
T1 construct: expressed in transfected cells; host or cells: COS-7, transient (Fugene-6); membranes
T1 sequence (Q03431 27-593): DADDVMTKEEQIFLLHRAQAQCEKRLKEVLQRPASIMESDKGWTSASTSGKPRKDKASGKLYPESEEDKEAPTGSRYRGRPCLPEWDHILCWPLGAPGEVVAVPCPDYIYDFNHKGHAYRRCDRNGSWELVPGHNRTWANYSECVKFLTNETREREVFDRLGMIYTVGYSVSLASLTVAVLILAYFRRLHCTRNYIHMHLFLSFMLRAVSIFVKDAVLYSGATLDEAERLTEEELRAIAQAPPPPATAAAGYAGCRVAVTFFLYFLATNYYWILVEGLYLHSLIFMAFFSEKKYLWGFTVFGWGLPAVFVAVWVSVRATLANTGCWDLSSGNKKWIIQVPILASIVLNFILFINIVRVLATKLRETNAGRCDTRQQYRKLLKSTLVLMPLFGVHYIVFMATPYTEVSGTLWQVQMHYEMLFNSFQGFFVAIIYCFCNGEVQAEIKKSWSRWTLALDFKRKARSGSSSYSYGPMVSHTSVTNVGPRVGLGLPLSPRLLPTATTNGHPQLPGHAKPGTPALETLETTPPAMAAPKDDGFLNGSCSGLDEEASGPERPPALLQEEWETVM
As to the kind of experiment: Competition binding to RG conformation of hPTHR (COS-7 membranes, GαsND, 125I-[Aib1,3,M]PTH(1-15) tracer). The following applies: for IC50: Table 2, read-out: RG binding affinity hPTHR IC50; for screen human PIR RG (% parent): parent PTHrP(1-28)NH.

Experiment [2] has as its target T2, human PTHR, G protein-uncoupled conformation (R^0) (Homo sapiens, UniProt Q03431).
T2 construct: expressed in transfected cells; host or cells: COS-7, transient (Fugene-6)
T2 sequence (Q03431 27-593): T1 sequence (Q03431 27-593)
As to the kind of experiment: Competition binding to R0 conformation of hPTHR (COS-7 membranes, GTPγS, 125I-PTH(1-34) tracer). Conditions: for IC50: read-out: R^0 binding affinity hPTHR IC50; for screen human PIR R0 (% parent): parent PTHrP(1-28)NH. The method, boiled down:
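Membranes from hPTHR-transfected COS-7 cells (20-100 μg/mL protein) incubated 90 min with radioligand (~150,000 cpm/ml) and unlabeled ligands, then filtered. Specific binding expressed as % of binding without competitor.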

The test system of experiment [3] is LLCPK1-B64 cells or SaOS-2 cells. Description: cAMP screen of substituted PTHrP(1-28) analogs (% parent). Conditions: parent PTHrP(1-28)NH. It counts as cell-based. The essentials: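 LLCPK1-B64 or SaOS-2 cells exposed to peptide analogs at 3×10^−9M with IBMX for 30 minutes at room temperature, then cAMP measured. Each analog's response expressed as percentage of that for parent PTHrP(1-28).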

[4] abbreviates: Table 2, read-out: SaOS camp EC50.
[5] abbreviates: Table 3, read-out: dose-response cAMP in SaOS (EC50).
Setting [6] is: Table 2, read-out: MC3T3-E1 cAMP EC50.
Setting [7] is: Table 3, read-out: dose-response cAMP in MC3T3-E1 (EC50).

As to `CC[C@H](C)[C@H](NC(=O)[C@H](CC(C)C)NC(=O)[C@H](CCCCN)NC(=O)[C@H](Cc1c[nH]cn1)NC(=O)[C@H](CC(C)C)NC(=O)[C@H](Cc1ccccc1)NC(=O)[C@H](C)NC(=O)[C@H](CCCNC(=N)N)NC(=O)[C@H](CCCNC(=N)N)NC(=O)[C@H](CCCNC(=N)N)NC(=O)[C@H](C)NC(=O)[C@H](CC(=O)O)NC(=O)[C@H](CCC(N)=O)NC(=O)[C@@H](NC(=O)[C@H](CO)NC(=O)[C@H](CCCCN)NC(=O)CNC(=O)[C@H](CCCCN)NC(=O)[C@H](CC(=O)O)NC(=O)[C@H](Cc1c[nH]cn1)NC(=O)[C@H](CC(C)C)NC(=O)[C@H](CC(C)C)NC(=O)[C@H](CCC(N)=O)NC(=O)[C@H](Cc1c[nH]cn1)NC(=O)[C@H](CCC(=O)O)NC(=O)[C@H](CO)NC(=O)[C@@H](NC(=O)[C@H](C)N)C(C)C)[C@@H](C)CC)C(N)=O` [A18, 22, K26-PTHrP(1-28)NH, A18,22,K26-PTHrP(1-28)] (H-AVSEHQLLHDKGKSIQDARRRAFLHKLI-NH2; N-terminus assumed), the EC50 (as a rule, the midpoint of the concentration-response curve) with SaOS cells (setting [4]) is 0.024 nM; with SaOS cells (setting [5]), 0.024 nM; with MC3T3-E1 cells (setting [6]), 0.091 nM; in the experiment on MC3T3-E1 cells (setting [7]) it was 0.091 nM. In addition, the IC50 (commonly the concentration that inhibits the measured activity by half) in experiment [1] stood at 0.1 nM; in experiment [2] (Table 2), 1810 nM. The “screen human PIR RG (% parent)” value in experiment [1] is 193 % parent. Further, in experiment [2] (Table 2, hPTHR), the R0/RG selectivity worked out at 18079. The “screen human PIR R0 (% parent)” value in experiment [2] is reported as 178 % parent. Besides, the “screen cAMP (% parent)” value in experiment [3] amounted to 405 % parent.
For `CC[C@H](C)[C@H](NC(=O)[C@H](CC(C)C)NC(=O)[C@H](CCCCN)NC(=O)[C@H](CC(C)C)NC(=O)[C@H](CC(C)C)NC(=O)[C@H](Cc1ccccc1)NC(=O)[C@H](C)NC(=O)[C@H](CCCNC(=N)N)NC(=O)[C@H](CCCNC(=N)N)NC(=O)[C@H](CCCNC(=N)N)NC(=O)[C@H](C)NC(=O)[C@H](CC(=O)O)NC(=O)[C@H](CCC(N)=O)NC(=O)[C@@H](NC(=O)[C@H](CO)NC(=O)[C@H](CCCCN)NC(=O)CNC(=O)[C@H](CCCCN)NC(=O)[C@H](CC(=O)O)NC(=O)[C@H](Cc1c[nH]cn1)NC(=O)[C@H](CC(C)C)NC(=O)[C@H](CC(C)C)NC(=O)[C@H](CCC(N)=O)NC(=O)[C@H](Cc1c[nH]cn1)NC(=O)[C@H](CCC(=O)O)NC(=O)[C@H](CO)NC(=O)[C@@H](NC(=O)[C@H](C)N)C(C)C)[C@@H](C)CC)C(=O)N[C@@H](C)C(=O)N[C@@H](CCC(=O)O)C(N)=O` [A18, 22, L25, K26-PTHrP(1-30)NH, A18,22,L25,K26-PTHrP(1-30)], the half-maximal effective concentration (EC50) in the experiment on SaOS cells (setting [4]) was 0.008 nM; with MC3T3-E1 cells (setting [6]) it was 0.067 nM; in the experiment on MC3T3-E1 cells (setting [7]), 0.067 nM. For the same molecule, the IC50 in experiment [1] was 0.05 nM; in experiment [2] (Table 2), 144 nM.
As to `CC[C@H](C)[C@H](NC(=O)[C@H](CC(C)C)NC(=O)[C@H](CCCCN)NC(=O)[C@H](Cc1c[nH]cn1)NC(=O)[C@H](CC(C)C)NC(=O)[C@H](Cc1ccccc1)NC(=O)[C@H](C)NC(=O)[C@H](CCCNC(=N)N)NC(=O)[C@H](CCCNC(=N)N)NC(=O)[C@H](CCCNC(=N)N)NC(=O)[C@H](CCC(=O)O)NC(=O)[C@H](CC(=O)O)NC(=O)[C@H](CCC(N)=O)NC(=O)[C@@H](NC(=O)[C@H](CO)NC(=O)[C@H](CCCCN)NC(=O)CNC(=O)[C@H](CCCCN)NC(=O)[C@H](CC(=O)O)NC(=O)[C@H](Cc1c[nH]cn1)NC(=O)[C@H](CC(C)C)NC(=O)[C@H](CC(C)C)NC(=O)[C@H](CCC(N)=O)NC(=O)[C@H](Cc1c[nH]cn1)NC(=O)[C@H](CCC(=O)O)NC(=O)[C@H](CO)NC(=O)[C@@H](NC(=O)[C@H](C)N)C(C)C)[C@@H](C)CC)C(N)=O` [E18, A22, K26-PTHrP(1-28)NH, E18,A22,K26-PTHrP(1-28)] (H-AVSEHQLLHDKGKSIQDERRRAFLHKLI-NH2; N-terminus assumed), the EC50 with SaOS cells (setting [4]) is 0.241 nM; in the experiment on SaOS cells (setting [5]), 0.241 nM; with MC3T3-E1 cells (setting [6]), 0.251 nM; with MC3T3-E1 cells (setting [7]), 0.251 nM. Besides, the “screen human PIR RG (% parent)” value in experiment [1] worked out at 145 % parent. Moreover, the half-inhibitory concentration (IC50) in experiment [2] (Table 2) amounted to 9240 nM. Besides, in experiment [2], the “screen human PIR R0 (% parent)” value is reported as 68.8 % parent. Moreover, in experiment [3], the “screen cAMP (% parent)” value is reported as 301 % parent.
